Data taken from PMC6609467 (ChemMedChem, 2019).

Assays:
[1] = biological target: T1, NDM-1 (Klebsiella pneumoniae, UniProt C7C422); assay: Inhibition of NDM-1 catalyzed Fluorocillin hydrolysis; assay type: biochemical
[2] = biological target: IMP-1 (Serratia marcescens, UniProt P52699); assay: Inhibition of IMP-1 catalyzed Fluorocillin hydrolysis; assay type: biochemical
[3] = biological target: VIM-2 (Escherichia coli, UniProt Q5U7L7); assay: Inhibition of VIM-2 catalyzed Fluorocillin hydrolysis; assay type: biochemical
[4] = biological target: ZnZn-NDM-1 (Klebsiella pneumoniae, UniProt C7C422); assay: Equilibrium dialysis, Zn; assay type: binding; conditions: for Zn(II) retained by NDM-1 at highest tested concentration: 128 μM compound; for Inhibition mechanism against NDM-1: from equilibrium dialysis and UV-vis of CoCo-NDM-1; for Zn(II) removal from NDM-1 in equilibrium dialysis: NDM-1 8 μM, compound 16 - 128 μM; for Zn(II) removal from NDM-1 at 32 μM compound: Figure S2
Sequence of ZnZn-NDM-1 (C7C422 29-270, looked up): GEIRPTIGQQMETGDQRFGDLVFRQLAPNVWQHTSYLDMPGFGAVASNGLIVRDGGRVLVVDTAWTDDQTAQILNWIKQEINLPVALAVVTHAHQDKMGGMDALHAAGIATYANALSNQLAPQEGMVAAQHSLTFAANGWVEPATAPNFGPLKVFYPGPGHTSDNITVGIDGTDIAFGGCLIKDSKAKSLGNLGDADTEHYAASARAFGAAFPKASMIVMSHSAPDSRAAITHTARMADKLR

[5] = biological target: T1, NDM-1; assay: Inhibition of NDM-1 catalyzed meropenem hydrolysis; assay type: biochemical
[6] = biological target: T1, NDM-1; conditions: meropenem as substrate of NDM-1
[7] = biological target: T1, NDM-1; conditions: read-out: KM, NDM-1; Fluorocillin as substrate; ref [28], [43]; cited from earlier work

Sequence of IMP-1 (P52699 19-246, species assumed): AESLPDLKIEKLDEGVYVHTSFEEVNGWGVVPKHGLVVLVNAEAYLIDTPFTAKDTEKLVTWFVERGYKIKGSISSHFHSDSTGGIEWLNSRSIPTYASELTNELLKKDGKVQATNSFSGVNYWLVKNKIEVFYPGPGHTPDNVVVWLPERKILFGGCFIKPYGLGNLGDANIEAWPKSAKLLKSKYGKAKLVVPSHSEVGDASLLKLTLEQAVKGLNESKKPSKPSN
T1 sequence (C7C422 29-270 limits assumed): as the sequence (C7C422 29-270, looked up) above

Compound: O=C(O)c1cccc(P(=O)(O)O)n1 [Compound 1, 6-Phosphonopicolinic acid]
- IC50 [1]: 64 ± 1 nM
- IC50 [2]: 850 ± 60 nM
- IC50 [3]: 850 ± 20 nM

Compound: O=C(O)c1cccc(CP(=O)(O)O)n1 [Compound 2, 6-(Phosphonomethyl)picolinic acid]
- IC50 [1]: 68 ± 2 nM
- IC50 [2]: 630 ± 10 nM
- IC50 [3]: 620 ± 10 nM
- Zn(II) retained by NDM-1 at highest tested concentration [4]: less than one equivalent was retained
- Inhibition mechanism against NDM-1 [4]: primarily via Zn(II) removal

Compound: O=C(O)Cc1cccc(C(=O)O)n1 [Compound 3, 6-(Carboxymethyl)picolinic acid]
- IC50 [1]: 2050 ± 90 nM
- IC50 [2]: 59000 ± 5000 nM
- IC50 [5]: 7700 ± 600 nM
- IC50 [3]: 35000 ± 1000 nM
- Zn(II) removal from NDM-1 in equilibrium dialysis [4]: removing only small amounts of Zn(II)

Compound: O=C(O)c1cccc(-c2nnn[nH]2)n1 [Compound 4, 6-(1H-Tetrazol-5-yl)picolinic acid]
- IC50 [1]: 2190 ± 130 nM
- IC50 [2]: 22000 ± 1000 nM
- IC50 [5]: 7000 ± 500 nM
- Ki [5]: 2200 ± 500 nM
- IC50 [3]: 27000 ± 2000 nM
- Zn(II) removal from NDM-1 in equilibrium dialysis [4]: removing only small amounts of Zn(II)
- Inhibition mechanism against NDM-1 [4]: mainly via formation of a ternary complex

Compound: O=C(O)c1cccc(CS(=O)(=O)O)n1 [Compound 5, 6-(Sulfomethyl)picolinic acid]
- IC50 [5]: > 10000 nM

Compound: CS(=O)(=O)Cc1cccc(C(=O)O)n1 [Compound 6, 6-((Methylsulfonyl)methyl)picolinic acid]
- IC50 [5]: > 10000 nM

Compound: CS(=O)(=O)Nc1cccc(C(=O)O)n1 [Compound 7, 6-(Methylsulfonamido)picolinic acid]
- IC50 [5]: > 10000 nM

Compound: CN(Cc1cccc(C(=O)O)n1)S(C)(=O)=O [Compound 8, 6-((N-Methylmethylsulfonamido)methyl)picolinic acid]
- IC50 [5]: > 10000 nM

Compound: O=C(O)c1cccc(-c2nccs2)n1 [Compound 9, 6-(Thiazol-2-yl)picolinic acid]
- IC50 [5]: > 10000 nM

Compound: O=C(O)c1cccc(-c2ncco2)n1 [Compound 10, 6-(Oxazol-2-yl)picolinic acid]
- IC50 [5]: > 10000 nM

Compound: O=C(O)c1cc(-c2ccccc2)cc(CP(=O)(O)O)n1 [Compound 18a, 4-Phenyl-6-(phosphonomethyl)picolinic acid]
- IC50 [5]: 410 ± 20 nM

Compound: COc1ccc(-c2cc(CP(=O)(O)O)nc(C(=O)O)c2)cc1 [Compound 18b, 4-(4-Methoxyphenyl)-6-(phosphonomethyl)picolinic acid]
- IC50 [5]: 200 ± 10 nM
- Zn(II) removal from NDM-1 at 32 μM compound [4]: only slight Zn(II) removal
- Zn(II) retained by NDM-1 at highest tested concentration [4]: one equivalent of Zn(II) was retained
- Zn(II) removal from NDM-1 in equilibrium dialysis [4]: reduced tendency to remove Zn(II)

Compound: COc1cccc(-c2cc(CP(=O)(O)O)nc(C(=O)O)c2)c1 [Compound 18c, 4-(3-Methoxyphenyl)-6-(phosphonomethyl)picolinic acid]
- IC50 [5]: 420 ± 20 nM

Compound: COc1ccccc1-c1cc(CP(=O)(O)O)nc(C(=O)O)c1 [Compound 18d, 4-(2-Methoxyphenyl)-6-(phosphonomethyl)picolinic acid]
- IC50 [5]: 300 ± 10 nM

Compound: O=C(O)c1cc(-c2ccc(O)cc2)cc(CP(=O)(O)O)n1 [Compound 18e, 4-(4-Hydroxyphenyl)-6-(phosphonomethyl)picolinic acid]
- IC50 [5]: 480 ± 10 nM

Compound: O=C(O)c1cc(-c2cccc(O)c2)cc(CP(=O)(O)O)n1 [Compound 18f, 4-(3-Hydroxyphenyl)-6-(phosphonomethyl)picolinic acid]
- IC50 [5]: 280 ± 10 nM

Compound: O=C(O)c1cc(-c2ccccc2O)cc(CP(=O)(O)O)n1 [Compound 18g, 4-(2-Hydroxyphenyl)-6-(phosphonomethyl)picolinic acid]
- IC50 [5]: 280 ± 10 nM

Compound: Nc1ccc(-c2cc(CP(=O)(O)O)nc(C(=O)O)c2)cc1 [Compound 18h, 4-(4-Aminophenyl)-6-(phosphonomethyl)picolinic acid]
- IC50 [5]: 300 ± 10 nM

Compound: Nc1cccc(-c2cc(CP(=O)(O)O)nc(C(=O)O)c2)c1 [Compound 18i, 4-(3-Aminophenyl)-6-(phosphonomethyl)picolinic acid]
- IC50 [5]: 400 ± 20 nM
- Zn(II) removal from NDM-1 at 32 μM compound [4]: only slight Zn(II) removal
- Zn(II) retained by NDM-1 at highest tested concentration [4]: one equivalent of Zn(II) was retained
- Zn(II) removal from NDM-1 in equilibrium dialysis [4]: reduced tendency to remove Zn(II)

Compound: Nc1ccccc1-c1cc(CP(=O)(O)O)nc(C(=O)O)c1 [Compound 18j, 4-(2-Aminophenyl)-6-(phosphonomethyl)picolinic acid]
- IC50 [5]: 240 ± 10 nM

Compound: O=C(O)c1cc(-c2ccc(Cl)cc2)cc(CP(=O)(O)O)n1 [Compound 18k, 4-(4-Chlorophenyl)-6-(phosphonomethyl)picolinic acid]
- IC50 [5]: 400 ± 10 nM

Compound: O=C(O)c1cc(-c2cccc(Cl)c2)cc(CP(=O)(O)O)n1 [Compound 18l, 4-(3-Chlorophenyl)-6-(phosphonomethyl)picolinic acid]
- IC50 [5]: 1290 ± 70 nM

Compound: O=C(O)c1cc(-c2ccccc2Cl)cc(CP(=O)(O)O)n1 [Compound 18m, 4-(2-Chlorophenyl)-6-(phosphonomethyl)picolinic acid]
- IC50 [5]: 950 ± 50 nM

Compound: O=C(O)c1cccc(C(=O)O)n1 [DPA, dipicolinic acid, reference compound]
- IC50 [1]: 330 ± 40 nM
- IC50 [3]: 2340 ± 40 nM
- Zn(II) removal from NDM-1 in equilibrium dialysis [4]: significantly reduced

Compound: C[C@H](CS)C(=O)N1CCC[C@H]1C(=O)O [L-captopril, reference compound]
- Zn(II) removal from NDM-1 in equilibrium dialysis [4]: did not show any evidence of Zn(II) removal

Compound: C[C@@H](O)[C@H]1C(=O)N2C(C(=O)O)=C(S[C@@H]3CN[C@H](C(=O)N(C)C)C3)[C@H](C)[C@H]12 [Meropenem, meropenem]
- kcat [6]: 15.3 ± 0.4 s⁻¹

Compound: Fluorocillin
- Km [7]: 0.46 µM
